{
  "source": "paper PMC5218480",
  "about": "(PLoS ONE, 2017)",
  "system": "MV-4-11 cells",
  "test": "Gene expression microarray analysis (Affymetrix PrimeView) and GSEA",
  "format": "cell-based, human",
  "parameters": "RFU PODN (11730768_x_at) / Fold change /veh PODN (11730768_x_at) / RFU LINC00158 (11744669_a_at) / Fold change /veh LINC00158 (11744669_a_at) / RFU DUSP10 (11751237_a_at) / Fold change /veh DUSP10 (11751237_a_at) / RFU ID3 (11757404_x_at) / Fold change /veh ID3 (11757404_x_at) / RFU PLEKHG5 (11737974_s_at) / Fold change /veh PLEKHG5 (11737974_s_at) / RFU LRRC4B (11730491_at) / Fold change /veh LRRC4B (11730491_at) / RFU GIMAP4 (11747438_a_at) / Fold change /veh GIMAP4 (11747438_a_at) / RFU KRT8 (11758183_x_at) / Fold change /veh KRT8 (11758183_x_at) / RFU CNN1 (11734310_a_at) / Fold change /veh CNN1 (11734310_a_at) / RFU VPS37D (11726825_at) / Fold change /veh VPS37D (11726825_at) / RFU C10orf10 (11716522_x_at) / Fold change /veh C10orf10 (11716522_x_at) / RFU KIR2DL2 /// KIR2DL4 /// KIR2DL5A /// KIR2DL5B /// KIR2DS1 /// KIR2DS2 /// KIR2DS3 /// KIR2DS4 /// KIR3DL3 /// KIR3DL3 /// KIR3DS1 (11738374_at) / Fold change /veh KIR2DL2 /// KIR2DL4 /// KIR2DL5A /// KIR2DL5B /// KIR2DS1 /// KIR2DS2 /// KIR2DS3 /// KIR2DS4 /// KIR3DL3 /// KIR3DL3 /// KIR3DS1 (11738374_at) / RFU C1QL1 (11718748_at) / Fold change /veh C1QL1 (11718748_at) / RFU TMPRSS4 (11747572_a_at) / Fold change /veh TMPRSS4 (11747572_a_at) / RFU HAMP (11756126_x_at) / Fold change /veh HAMP (11756126_x_at) / RFU RNFT2 (11725882_a_at) / Fold change /veh RNFT2 (11725882_a_at) / RFU NR4A2 (11747474_a_at) / Fold change /veh NR4A2 (11747474_a_at) / RFU ABCC12 (11746883_a_at) / Fold change /veh ABCC12 (11746883_a_at) / RFU TMEM136 (11760407_x_at) / Fold change /veh TMEM136 (11760407_x_at) / RFU CLDN22 /// WWC2 (11732394_at) / Fold change /veh CLDN22 /// WWC2 (11732394_at) / RFU HLA-DPB1 (11760878_x_at) / Fold change /veh HLA-DPB1 (11760878_x_at) / RFU SPINT1 (11716480_a_at) / Fold change /veh SPINT1 (11716480_a_at) / RFU GAP43 (11754022_s_at) / Fold change /veh GAP43 (11754022_s_at) / RFU A4GNT (11735810_at) / Fold change /veh A4GNT (11735810_at) / RFU PRB3 (11715151_x_at) / Fold change /veh PRB3 (11715151_x_at) / RFU TUBB4B (11761932_at) / Fold change /veh TUBB4B (11761932_at) / RFU CAPN14 (11732068_a_at) / Fold change /veh CAPN14 (11732068_a_at) / RFU TMCC2 (11721928_a_at) / Fold change /veh TMCC2 (11721928_a_at) / RFU IRGQ (11745062_a_at) / Fold change /veh IRGQ (11745062_a_at) / RFU FAM174B (11720279_a_at) / Fold change /veh FAM174B (11720279_a_at) / RFU TMPRSS4 (11748680_a_at) / Fold change /veh TMPRSS4 (11748680_a_at) / RFU FAM212B (11763350_a_at) / Fold change /veh FAM212B (11763350_a_at) / RFU PLEKHG5 (11743358_a_at) / Fold change /veh PLEKHG5 (11743358_a_at) / RFU ZSCAN30 (11745921_a_at) / Fold change /veh ZSCAN30 (11745921_a_at) / RFU CMKLR1 (11741424_a_at) / Fold change /veh CMKLR1 (11741424_a_at) / RFU LOC101060620 /// MAPK8IP1 (11723275_at) / Fold change /veh LOC101060620 /// MAPK8IP1 (11723275_at) / RFU SPTSSB (11747773_x_at) / Fold change /veh SPTSSB (11747773_x_at) / RFU PRSS12 (11739890_at) / Fold change /veh PRSS12 (11739890_at) / RFU BIN1 (11741810_x_at) / Fold change /veh BIN1 (11741810_x_at) / RFU WNT11 (11732464_a_at) / Fold change /veh WNT11 (11732464_a_at) / RFU C10orf10 (11716521_a_at) / Fold change /veh C10orf10 (11716521_a_at) / RFU C5orf56 (11738089_at) / Fold change /veh C5orf56 (11738089_at) / RFU CYB561 (11721691_x_at) / Fold change /veh CYB561 (11721691_x_at) / RFU ANKRD19P (11752326_a_at) / Fold change /veh ANKRD19P (11752326_a_at) / RFU OR2T12 /// OR2T33 /// OR2T8 (11738714_s_at) / Fold change /veh OR2T12 /// OR2T33 /// OR2T8 (11738714_s_at) / RFU VCAN (11748164_a_at) / Fold change /veh VCAN (11748164_a_at) / RFU JSRP1 (11732532_at) / Fold change /veh JSRP1 (11732532_at) / RFU KRTAP10-11 (11738290_x_at) / Fold change /veh KRTAP10-11 (11738290_x_at) / RFU MYO3A (11730013_a_at) / Fold change /veh MYO3A (11730013_a_at) / RFU EBF3 (11725865_a_at) / Fold change /veh EBF3 (11725865_a_at) / RFU CAMK2N1 (11719241_x_at) / Fold change /veh CAMK2N1 (11719241_x_at) / RFU C5orf56 (11738088_a_at) / Fold change /veh C5orf56 (11738088_a_at) / RFU OLFML3 (11715873_a_at) / Fold change /veh OLFML3 (11715873_a_at) / RFU LOC100653217 /// NTM (11731650_a_at) / Fold change /veh LOC100653217 /// NTM (11731650_a_at) / RFU MAPK11 (11762145_a_at) / Fold change /veh MAPK11 (11762145_a_at) / RFU FIZ1 (11724087_x_at) / Fold change /veh FIZ1 (11724087_x_at) / RFU OASL (11726364_x_at) / Fold change /veh OASL (11726364_x_at) / RFU SOX15 (11748057_x_at) / Fold change /veh SOX15 (11748057_x_at) / RFU CD79A (11719716_a_at) / Fold change /veh CD79A (11719716_a_at) / RFU HIST1H1D (11736915_at) / Fold change /veh HIST1H1D (11736915_at) / RFU CASKIN2 (11723855_a_at) / Fold change /veh CASKIN2 (11723855_a_at) / RFU LOC730098 (11760151_x_at) / Fold change /veh LOC730098 (11760151_x_at) / RFU OR4N2 (11742367_at) / Fold change /veh OR4N2 (11742367_at) / RFU PRRT2 (11749266_a_at) / Fold change /veh PRRT2 (11749266_a_at) / RFU SNX32 (11753110_a_at) / Fold change /veh SNX32 (11753110_a_at) / RFU CDHR5 (11726645_a_at) / Fold change /veh CDHR5 (11726645_a_at) / RFU RCAN1 (11760418_a_at) / Fold change /veh RCAN1 (11760418_a_at) / RFU FAM167A (11723789_a_at) / Fold change /veh FAM167A (11723789_a_at) / RFU FAM26E (11764081_at) / Fold change /veh FAM26E (11764081_at) / RFU ISYNA1 (11749810_s_at) / Fold change /veh ISYNA1 (11749810_s_at) / RFU ACY1 (11761880_at) / Fold change /veh ACY1 (11761880_at) / RFU 11764098_at / Fold change /veh 11764098_at / RFU SAMD14 (11745864_x_at) / Fold change /veh SAMD14 (11745864_x_at) / RFU NPB (11741838_a_at) / Fold change /veh NPB (11741838_a_at) / RFU TMPRSS6 (11731388_a_at) / Fold change /veh TMPRSS6 (11731388_a_at) / RFU KRTAP10-2 (11738614_at) / Fold change /veh KRTAP10-2 (11738614_at) / RFU ARHGAP8 /// PRR5-ARHGAP8 (11727945_x_at) / Fold change /veh ARHGAP8 /// PRR5-ARHGAP8 (11727945_x_at) / RFU KRTAP5-7 /// NADSYN1 (11734609_at) / Fold change /veh KRTAP5-7 /// NADSYN1 (11734609_at) / RFU RASL12 (11751679_a_at) / Fold change /veh RASL12 (11751679_a_at) / RFU CDKN2B (11736163_a_at) / Fold change /veh CDKN2B (11736163_a_at) / RFU PRF1 (11729649_at) / Fold change /veh PRF1 (11729649_at) / RFU, ZNF638 /// ZNF638-IT1 / Fold change vs veh, ZNF638 /// ZNF638-IT1 / RFU, PANK3 / Fold change vs veh, PANK3 / RFU, SH3YL1 / Fold change vs veh, SH3YL1 / RFU, ZEB2 / Fold change vs veh, ZEB2 / RFU, NRIP1 / Fold change vs veh, NRIP1 / RFU, PTTG1IP / Fold change vs veh, PTTG1IP / RFU, CAPN2 / Fold change vs veh, CAPN2 / RFU, MED14 / Fold change vs veh, MED14 / RFU, SNORA58 / Fold change vs veh, SNORA58 / RFU, C1orf63 / Fold change vs veh, C1orf63 / RFU, LRRFIP1 / Fold change vs veh, LRRFIP1 / RFU, NDUFAF7 / Fold change vs veh, NDUFAF7 / RFU, SLC12A2 / Fold change vs veh, SLC12A2 / RFU, IBTK / Fold change vs veh, IBTK / RFU, ESF1 / Fold change vs veh, ESF1 / Fold change vs veh, TMEM50B / RFU, TAOK1 / Fold change vs veh, TAOK1 / RFU, ACBD3 / Fold change vs veh, ACBD3 / RFU, TMA16 / Fold change vs veh, TMA16 / RFU, RWDD3 / Fold change vs veh, RWDD3 / RFU, BCAT1 / Fold change vs veh, BCAT1 / RFU, EDEM3 / Fold change vs veh, EDEM3 / RFU, TMEM33 / Fold change vs veh, TMEM33 / RFU, WDR75 / Fold change vs veh, WDR75 / RFU, AHCTF1 / Fold change vs veh, AHCTF1 / RFU, TFRC / Fold change vs veh, TFRC / RFU, ZDHHC17 / Fold change vs veh, ZDHHC17 / RFU, NOM1 / Fold change vs veh, NOM1 / RFU, ARL8B / Fold change vs veh, ARL8B / RFU, ZBTB11 / Fold change vs veh, ZBTB11 / RFU, TAMM41 / Fold change vs veh, TAMM41 / RFU, KIAA1704 /// LOC100996395 / Fold change vs veh, KIAA1704 /// LOC100996395 / RFU, ING1 / Fold change vs veh, ING1 / RFU, TRMT61B / Fold change vs veh, TRMT61B / RFU, FUBP3 / Fold change vs veh, FUBP3 / RFU, TP53 / Fold change vs veh, TP53 / RFU, TNKS2 / Fold change vs veh, TNKS2 / RFU, ZFP14 / Fold change vs veh, ZFP14 / RFU, ACTR2 / Fold change vs veh, ACTR2 / RFU, PPP3R1 / Fold change vs veh, PPP3R1 / RFU, PIK3R1 / Fold change vs veh, PIK3R1 / RFU, HNRNPA1 / Fold change vs veh, HNRNPA1 / RFU, RNF170 / Fold change vs veh, RNF170 / RFU, ZNF28 / Fold change vs veh, ZNF28 / RFU, RNGTT / Fold change vs veh, RNGTT / RFU, OGT / Fold change vs veh, OGT / RFU, BRD1 / Fold change vs veh, BRD1 / RFU, MARS / Fold change vs veh, MARS / RFU, ZNF655 / Fold change vs veh, ZNF655 / RFU, FAHD1 / Fold change vs veh, FAHD1 / RFU, BDP1 / Fold change vs veh, BDP1 / RFU, LRRCC1 / Fold change vs veh, LRRCC1 / RFU, ARID1A / Fold change vs veh, ARID1A / RFU, ZNF146 / Fold change vs veh, ZNF146 / RFU, ZNF330 / Fold change vs veh, ZNF330 / RFU, GPN3 / Fold change vs veh, GPN3 / RFU, C9orf123 / Fold change vs veh, C9orf123 / RFU, N4BP2L2 / Fold change vs veh, N4BP2L2 / RFU, ARFIP1 / Fold change vs veh, ARFIP1 / RFU, FAM179B / Fold change vs veh, FAM179B / RFU, BCL10 / Fold change vs veh, BCL10 / RFU, UHRF1BP1L / Fold change vs veh, UHRF1BP1L / RFU, BET1 / Fold change vs veh, BET1 / RFU, CNOT2 / Fold change vs veh, CNOT2 / RFU, ZNF268 / Fold change vs veh, ZNF268 / Fold change vs veh, ZNF507 / RFU, DGCR2 / Fold change vs veh, DGCR2 / RFU, WDSUB1 / Fold change vs veh, WDSUB1 / Fold change vs veh, HSP90B1 /// MIR3652 / RFU, ADSS / Fold change vs veh, ADSS / RFU, GK / Fold change vs veh, GK / RFU, ZNF148 / Fold change vs veh, ZNF148 / RFU, TAF9 / Fold change vs veh, TAF9 / RFU, SLC1A5 / Fold change vs veh, SLC1A5 / RFU, SLMO2 / Fold change vs veh, SLMO2 / RFU, ABCC4 / Fold change vs veh, ABCC4 / RFU, LOC101060439 /// RAP1B / Fold change vs veh, LOC101060439 /// RAP1B / RFU, RFX7 / Fold change vs veh, RFX7 / RFU, GTPBP10 / Fold change vs veh, GTPBP10 / RFU, CNEP1R1 / Fold change vs veh, CNEP1R1 / RFU, BIVM-ERCC5 /// ERCC5 / Fold change vs veh, BIVM-ERCC5 /// ERCC5 / RFU, ILF3 / Fold change vs veh, ILF3 / RFU 11762660_at / Fold change /veh 11762660_at / RFU VCAN (11757783_s_at) / Fold change /veh VCAN (11757783_s_at) / RFU DDX43 (11728927_at) / Fold change /veh DDX43 (11728927_at) / RFU KRT8 (11758188_x_at) / Fold change /veh KRT8 (11758188_x_at) / RFU NKD1 (11759106_at) / Fold change /veh NKD1 (11759106_at) / RFU SRD5A1 (11742802_a_at) / Fold change /veh SRD5A1 (11742802_a_at) / RFU TPSAB1 /// TPSB2 (11721975_s_at) / Fold change /veh TPSAB1 /// TPSB2 (11721975_s_at) / RFU GSTM3 (11746129_a_at) / Fold change /veh GSTM3 (11746129_a_at) / RFU IL23R (11737362_x_at) / Fold change /veh IL23R (11737362_x_at) / RFU TMEM51 (11727254_a_at) / Fold change /veh TMEM51 (11727254_a_at) / RFU PIWIL2 (11732686_x_at) / Fold change /veh PIWIL2 (11732686_x_at) / RFU ORM1 (11744905_x_at) / Fold change /veh ORM1 (11744905_x_at) / RFU CCDC152 (11743942_at) / Fold change /veh CCDC152 (11743942_at) / RFU ECM1 (11717891_a_at) / Fold change /veh ECM1 (11717891_a_at) / RFU IL23R (11748794_a_at) / Fold change /veh IL23R (11748794_a_at) / RFU TNFAIP8L3 (11732012_x_at) / Fold change /veh TNFAIP8L3 (11732012_x_at) / RFU MBOAT4 (11741988_at) / Fold change /veh MBOAT4 (11741988_at) / RFU 11764193_at / Fold change /veh 11764193_at / RFU TMEM53 (11763286_at) / Fold change /veh TMEM53 (11763286_at) / RFU MAGEB2 (11727129_at) / Fold change /veh MAGEB2 (11727129_at) / RFU TMEM200A (11744735_a_at) / Fold change /veh TMEM200A (11744735_a_at) / RFU CCDC152 (11751479_a_at) / Fold change /veh CCDC152 (11751479_a_at) / RFU FAM211A (11726209_a_at) / Fold change /veh FAM211A (11726209_a_at) / RFU RGS16 (11746705_a_at) / Fold change /veh RGS16 (11746705_a_at) / RFU VCAN (11755009_s_at) / Fold change /veh VCAN (11755009_s_at) / RFU RHOB (11743442_s_at) / Fold change /veh RHOB (11743442_s_at) / RFU RGS16 (11720943_a_at) / Fold change /veh RGS16 (11720943_a_at) / RFU RGS16 (11720944_at) / Fold change /veh RGS16 (11720944_at) / RFU, VPS4B / Fold change vs veh, VPS4B / RFU, CREB1 / Fold change vs veh, CREB1 / RFU, DNAJC13 / Fold change vs veh, DNAJC13 / RFU, GNAQ / Fold change vs veh, GNAQ / RFU, CDK5R1 / Fold change vs veh, CDK5R1 / RFU, ZRANB3 / Fold change vs veh, ZRANB3 / RFU, CUL4A / Fold change vs veh, CUL4A / RFU, CCNY / Fold change vs veh, CCNY / RFU, UFL1 / Fold change vs veh, UFL1 / RFU, COG3 / Fold change vs veh, COG3 / RFU, DIAPH2 / Fold change vs veh, DIAPH2 / RFU, SKA2 / Fold change vs veh, SKA2 / RFU, AFF3 / Fold change vs veh, AFF3 / RFU, LMF1 / Fold change vs veh, LMF1 / RFU, IPO11 / Fold change vs veh, IPO11 / RFU, DFFB / Fold change vs veh, DFFB / RFU, FOXP1 / Fold change vs veh, FOXP1 / RFU, CARD8 / Fold change vs veh, CARD8 / RFU, STRN3 / Fold change vs veh, STRN3 / RFU, ADK / Fold change vs veh, ADK / RFU, RASSF2 / Fold change vs veh, RASSF2 / RFU, WIPF1 / Fold change vs veh, WIPF1 / RFU, LARP1B / Fold change vs veh, LARP1B / RFU, RASA1 / Fold change vs veh, RASA1 / RFU, RB1 / Fold change vs veh, RB1 / RFU, PPFIA1 / Fold change vs veh, PPFIA1 / RFU, MAT2A / Fold change vs veh, MAT2A / RFU, CCT5 / Fold change vs veh, CCT5 / RFU, WDR92 / Fold change vs veh, WDR92 / RFU, CUX1 / Fold change vs veh, CUX1 / RFU, TTC7A / Fold change vs veh, TTC7A / RFU, TMEM135 / Fold change vs veh, TMEM135 / RFU, DEPTOR / Fold change vs veh, DEPTOR / RFU, CPM / Fold change vs veh, CPM / RFU, DNAJB6 / Fold change vs veh, DNAJB6 / RFU, CACNA2D3 / Fold change vs veh, CACNA2D3 / RFU, DTX4 / Fold change vs veh, DTX4 / RFU, TFCP2 / Fold change vs veh, TFCP2 / RFU, GMCL1 /// GMCL1P1 / Fold change vs veh, GMCL1 /// GMCL1P1 / RFU, AEBP2 / Fold change vs veh, AEBP2 / RFU, SNHG1 /// SNORD22 /// SNORD25 /// SNORD26 /// SNORD27 /// SNORD28 /// SNORD29 /// SNORD31 / Fold change vs veh, SNHG1 /// SNORD22 /// SNORD25 /// SNORD26 /// SNORD27 /// SNORD28 /// SNORD29 /// SNORD31 / Fold change (Aza/veh), C12orf56 (ProbeSet 11735607_a_at) / Fold change (ACY-1035/veh), C12orf56 (ProbeSet 11735607_a_at) / Fold change (Aza/veh), FGFR1OP (ProbeSet 11751329_s_at) / Fold change (ACY-1035/veh), FGFR1OP (ProbeSet 11751329_s_at) / Fold change (Aza/veh), VPS36 (ProbeSet 11739960_a_at) / Fold change (ACY-1035/veh), VPS36 (ProbeSet 11739960_a_at) / RFU SYPL1 (11715823_x_at) / Fold change /veh SYPL1 (11715823_x_at) / RFU IGFBP7 (11715501_s_at) / Fold change /veh IGFBP7 (11715501_s_at) / RFU REEP3 (11722064_at) / Fold change /veh REEP3 (11722064_at) / RFU IGLL1 (11728026_x_at) / Fold change /veh IGLL1 (11728026_x_at): dose or concentration left out as unconfirmed",
  "conditions": "ProbeSet 11728879_at; LIST B",
  "data": [
    {"smiles": "Nc1ncn([C@@H]2O[C@H](CO)[C@@H](O)[C@H]2O)c(=O)n1", "note": "[azacitidine]", "values": [
      {"measurement": "RFU, PPP3R1", "result": 331.25, "unit": "RFU"}
    ]}
  ]
}
